Data on 1 compound can be found in patent US20240180909A1, “Dosing Regimens for Elagolix” (AbbVie Inc., priority 2018, published 2024).

The data set has as its system premenopausal women with heavy menstrual bleeding associated with uterine fibroids. In words: Twelve month study with 300 mg BID (initial studies and extension study), heavy menstrual bleeding responder rate. In kind it is in vivo, human. As for the experimental part: This study was a randomized, double-blind, multicenter, extension study designed to evaluate the efficacy and safety of elagolix alone and in combination with an exemplary low-dose hormone (add-back) therapy (estradiol (“E2”) 1.0 mg/norethindrone acetate (“NETA”) 0.5 mg) in premenopausal women with heavy menstrual bleeding associated with uterine fibroids for up to 12 months total (an initial 6 months on active treatment in one of two replicate initial (i.e., pivotal) studies and an additional 6 months in this extension study.
Subjects who received elagolix 300 mg twice daily or elagolix 300 mg twice daily in combination with E2/NETA in the initial studies continued to receive the same treatment (n=94 and 206, respectively) while subjects who received placebo in the initial studies were randomized in an equal ratio to one of the two treatment groups (elagolix 300 mg BID (n=56) or elagolix 300 mg BID+E2/NETA (n=54)).
The primary efficacy endpoint was the percentage of subjects meeting the responder criteria: a) menstrual blood loss (MBL) volume<80 mL during the final, AND b) 50% or greater reduction in MBL volume from baseline to the final month. […]

As for `COc1cccc(-c2c(C)n(Cc3c(F)cccc3C(F)(F)F)c(=O)n(C[C@H](NCCCC(=O)O)c3ccccc3)c2=O)c1F` [Elagolix, 4-((R)-2-[5-(2-fluoro-3-methoxy-phenyl)-3-(2-fluoro-6-trifluoromethyl-benzyl)-4-methyl-2,6-dioxo-3,6-dihydro-2H-pyrimidin-1-yl]-1-phenyl-ethylamino)-butyric acid], the “Hypoestrogenic effects, such as hot flush and reduction in bone mineral density” value (initial and extension studies, elagolix 300 mg BID) is “observed”. Besides, for the setting “up to twelve months of treatment”, the safety signals result was “no new safety signals”.
